Structures are written as SMILES.

Experimental findings from patent US9750761B2, “LDH inhibitors as treatment for fibrosis and fibrotic-related disorders” (University of Rochester, priority 2014, dated 2017) are described below.

Data set [1] deals with primary human lung fibroblasts. The experiment in a line: Radiation-induced myofibroblast differentiation (α-SMA, LDHA Western blot). As to conditions: SB431542 2.5 μM from 1 hour before 7 Gy, 5 days post radiation. Type of data set: cell-based.
Protocol: Cell Culture and Irradiations: Fibroblasts were cultured in Eagle's minimum essential media (Life Technologies, Gaithersburg, Md.) supplemented with 10% FBS (Sigma Aldrich, St. Louis, Mo.), 2 mM L-Glutamine, antibiotic and antimycotic (Gibco, Carlsbad, Calif.) at 37° C. with 7% CO2. Cells were irradiated with a ^137Cs γ-ray source at approximately 2.70 cGy/min dose rate at indicated doses. Human recombinant TGF-β1 (R&D systems, Minneapolis, Minn.) was used at 1 ng/ml. […] TGF-β1 receptor 1 was inhibited using SB431542 (Sigma Aldrich) at 2.5 μM starting 1 hour prior to irradiations.
Western Blotting: Cell lysates were run on SDS-PAGE under reducing conditions and probed for expression of α-SMA (Sigma Aldrich), LDHA (Abcam, Cambridge, Mass.). Glyceraldehyde 3-phosphate dehydrogenase (Abcam) was used as a loading control.
For data set [2], the system named is primary human lung fibroblasts. The experiment in a line: Alamar blue assay. Type of data set: cell-based. The conditions noted are these: 72 hours. How it is done:
Alamar blue assay: Fibroblasts were cultured with and without TGF-β and/or gossypol for 72 hours and subsequently incubated with Alamar blue (Invitrogen, Grand Island, N.Y.). Alamar blue incorporation was determined by spectrophotometric analysis per the manufacturer's protocol.
Based on the foregoing results, it was believed that gossypol inhibits endogenous LDH activity, thus reducing lactate production and subsequent lactate-dependent activation of latent TGF-β in the medium. To investigate the mechanism of action of gossypol, fibroblasts were first treated with TGF-β for 72 hours. Next, protein lysates were harvested and incubated with increasing concentrations of gossypol for one hour. The LDH activity of each lysate was then determined with a standardized LDH kinetic activity assay. […] Next, it was investigated whether gossypol could prevent the extracellular accumulation of lactate by treated fibroblasts. […] To confirm that gossypol inhibits extracellular accumulation of lactate, the rate of extracellular acidification was measured using the commercially available Seahorse Bioassay. […] To determine whether the effects of gossypol were dependent on toxic effects on the cells, the Alamar blue assay was utilized.
(In general: Resazurin is reduced to fluorescent resorufin, in cell work by metabolically active cells.)

With `NC(=O)c1ccc(-c2nc(-c3ccc4c(c3)OCO4)c(-c3ccccn3)[nH]2)cc1` [SB431542], the “radiation-induced α-SMA expression” value in data set [1] is “significantly attenuated radiation-induced α-SMA expression”.
Take `Cc1cc2c(C(C)C)c(O)c(O)c(C=O)c2c(O)c1-c1c(C)cc2c(C(C)C)c(O)c(O)c(C=O)c2c1O` [gossypol]: the Alamar blue reduction result in data set [2] (1 mM gossypol) and in data set [2] (5 mM gossypol) was “no significant effect on Alamar blue reduction” in each case. For the same compound, in data set [2] (10 mM gossypol), the “decrease in Alamar blue reduction” value was 50%.
